Laboratory results as given in patent US9353088B2, “Crystalline pharmaceutical and methods of preparation and use thereof” (SARcode Bioscience Inc., priority 2009, dated 2016).
Values joined by “and” are separate entries in the source; they are usually repeats but may differ in a detail not shown here. Equal values may be shown once. “Also recorded” adds a separate entry of the source. Read-outs that look alike come from different tables or passages of the source.

Experiments:
LFA-1 = molecular target: T1, LFA-1 (Homo sapiens, UniProt P05107+P20701); test: in vitro cell assays (cell attachment and SEB IL-2 release); assay type: cell-based
T1 construct: LFA-1 levels in in vitro cell assays (cell attachment and SEB IL-2 release); endogenous in cells; host or cells: human T-cell lines (HuT 78 / Jurkat) and human PBMC

[1] = test system: Chinese hamster ovary (CHO) cells; test: In vitro chromosomal aberration assay in CHO cells; assay type: cell-based; conditions: with and without metabolic activation; except single toxic dose 3500 μg/mL without activation
Excerpt: The biological relevance of this response is equivocal due to cytotoxicity.

[2] = test system: micronuclei in polychromatic erythrocytes (PCE); test: In vivo mouse bone marrow micronucleus assay; set-up: species or system CD-1 (ICR) BR mice; conditions: repeated IV administrations
[3] = test system: attachment of Jurkat cells to ICAM-1; test: T-cell adhesion assay using Jurkat cells; assay type: cell-based, human; conditions: versus positive control
Procedure: A reported LFA-1 antagonist was used as the positive control.
Jurkat cells were labeled with an 8 μM solution of BCECF-AM (2′,7′-bis-(2-carboxyethyl)-5-(and -6)-carboxyfluorescein) in growth media at room temperature for 15 minutes. […] Non-adherent cells were removed by washing and centrifugation at 100 g for 1 minute. Adherent cells were determined as adherent fluorescent units on a fluorescent plate reader.

[4] = Single dose ocular and IV ADME with [14C]-compound, whole body autoradiography; assay type: in vivo, rats; conditions: for fecal excretion of administered radioactivity: 0 to 168 hours postdose; for Concentration, Aqueous humor / Concentration, Conjunctiva (bulbar) / Concentration, Conjunctiva (palpebral) / Concentration, Cornea / Concentration, Iris-ciliary body / Concentration, Lens / Concentration, Optic Nerve / Concentration, Retina and Choroid (with RPE) / Concentration, Sclera / Concentration, Vitreous Humor: ocular dosing
[5] = Single dose ocular and IV ADME with [14C]-compound; assay type: in vivo, dogs
Excerpt: No differences in results from male and female dogs were observed.

[6] = Solubility studies for dermal formulations; assay type: physicochemical
[7] = 13-week ocular toxicity study with 4-week recovery; conditions: 13-week ocular (3%)
[8] = test system: Keratoconjunctivitis Sicca (KCS); test: Canine keratoconjunctivitis sicca (KCS) study; assay type: in vivo, dog; conditions: for Schirmer Tear Test (OS), Mean: Dog #7 not included
Excerpt: If dogs had been treated with topical CsA or tacrolimus in the previous six months, they were not enrolled. […] Animals were subjected to an ocular examination once during the initial visit and during five visits over sixteen weeks of the study (Weeks, 2, 4, 8, 12 and 16). The last OE was approximately four weeks after the last dose of the compound of Formula I and after one month of CsA treatment. The adnexa and anterior portions of both eyes were examined using an indirect opthalmoscope. The eyes were dilated with a mydriatic when applicable, to allow evaluation of the lens and fundus, including the retina. An evaluation using a modified McDonald-Shaddock scoring system was performed in conjunction with the slitlamp ocular examinations at each interval. Tears were measured using STT strips during the initial visit and each of the five follow-up visits on Weeks 2, 4, 8, 12 and 16. One strip of STT paper was used for each eye for each interval. […] The length, in mm, of wetting below the notch of the paper was recorded. Fluorescein and rose bengal staining was performed at the each of the initial and follow up examinations. Intraocular pressure measurements (IOPs) were performed using a Tono-Pet Vet® in conjunction with each of the OEs. Digital ocular images were taken before and after staining (with fluorescein and rose bengal) during each of the OEs. Conjunctival biopsies were taken at the initial (pretreatment) visit and the Week 12 visit. The second biopsy was taken more lateral (approx. 1 mm) to the initial biopsy. Following appropriate preparation a small conjunctival biopsy was taken from the ventral fornix of each eye.

[9] = 0.5 hour, topical ocular 1 mg/eye
[10] = 0.5 hour, topical ocular 1 mg/eye, above upper limit of quantification
[11] = 8 hours postdose, topical ocular 1 mg/eye
[12] = 24 hours postdose, topical ocular 1 mg/eye
[13] = Week 1 (initial visit), individual dogs, Dog ID 1-7 = r5-r11
[14] = Week 2, individual dogs, 1% solution TID, listed as compound of Formula I
[15] = Week 4, individual dogs, 1% solution TID, listed as compound of Formula I
[16] = Week 8, individual dogs, 1% solution TID, listed as compound of Formula I
[17] = Week 12, individual dogs, 1% solution TID, listed as compound of Formula I
[18] = Week 16, individual dogs, four weeks after last dose and after one month of CsA
[19] = Weeks 1-12, individual dogs 1-7 = r6-r12
[20] = during the 12-week treatment period

T1 sequence (P20701 26-1170): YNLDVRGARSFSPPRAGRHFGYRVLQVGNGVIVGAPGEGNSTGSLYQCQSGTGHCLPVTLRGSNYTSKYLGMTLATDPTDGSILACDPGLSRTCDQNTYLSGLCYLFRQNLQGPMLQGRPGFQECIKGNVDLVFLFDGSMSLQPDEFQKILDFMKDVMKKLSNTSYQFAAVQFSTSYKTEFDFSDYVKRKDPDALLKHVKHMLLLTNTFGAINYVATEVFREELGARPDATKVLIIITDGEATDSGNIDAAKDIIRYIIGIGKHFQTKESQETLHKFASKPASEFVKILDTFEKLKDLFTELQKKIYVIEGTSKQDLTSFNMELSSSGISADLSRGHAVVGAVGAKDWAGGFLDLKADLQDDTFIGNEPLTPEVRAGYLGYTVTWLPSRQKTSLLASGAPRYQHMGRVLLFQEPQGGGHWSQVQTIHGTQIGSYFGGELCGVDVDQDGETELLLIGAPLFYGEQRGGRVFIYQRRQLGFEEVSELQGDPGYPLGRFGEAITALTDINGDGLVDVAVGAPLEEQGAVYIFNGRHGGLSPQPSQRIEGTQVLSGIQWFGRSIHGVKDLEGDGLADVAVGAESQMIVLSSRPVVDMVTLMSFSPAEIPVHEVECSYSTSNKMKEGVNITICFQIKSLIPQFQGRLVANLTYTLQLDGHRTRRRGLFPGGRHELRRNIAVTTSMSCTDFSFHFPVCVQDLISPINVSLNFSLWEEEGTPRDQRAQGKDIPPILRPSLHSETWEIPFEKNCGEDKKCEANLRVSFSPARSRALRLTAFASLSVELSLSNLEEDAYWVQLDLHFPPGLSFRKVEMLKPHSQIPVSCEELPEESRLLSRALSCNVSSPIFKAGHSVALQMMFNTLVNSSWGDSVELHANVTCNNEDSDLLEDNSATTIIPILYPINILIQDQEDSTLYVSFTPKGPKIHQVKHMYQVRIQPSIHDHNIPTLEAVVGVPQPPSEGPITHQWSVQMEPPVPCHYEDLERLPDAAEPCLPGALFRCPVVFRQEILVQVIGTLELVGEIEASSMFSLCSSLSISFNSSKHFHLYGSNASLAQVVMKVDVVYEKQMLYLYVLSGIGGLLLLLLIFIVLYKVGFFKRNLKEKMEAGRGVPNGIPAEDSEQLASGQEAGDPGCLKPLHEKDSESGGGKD
T1 sequence (P05107 23-769): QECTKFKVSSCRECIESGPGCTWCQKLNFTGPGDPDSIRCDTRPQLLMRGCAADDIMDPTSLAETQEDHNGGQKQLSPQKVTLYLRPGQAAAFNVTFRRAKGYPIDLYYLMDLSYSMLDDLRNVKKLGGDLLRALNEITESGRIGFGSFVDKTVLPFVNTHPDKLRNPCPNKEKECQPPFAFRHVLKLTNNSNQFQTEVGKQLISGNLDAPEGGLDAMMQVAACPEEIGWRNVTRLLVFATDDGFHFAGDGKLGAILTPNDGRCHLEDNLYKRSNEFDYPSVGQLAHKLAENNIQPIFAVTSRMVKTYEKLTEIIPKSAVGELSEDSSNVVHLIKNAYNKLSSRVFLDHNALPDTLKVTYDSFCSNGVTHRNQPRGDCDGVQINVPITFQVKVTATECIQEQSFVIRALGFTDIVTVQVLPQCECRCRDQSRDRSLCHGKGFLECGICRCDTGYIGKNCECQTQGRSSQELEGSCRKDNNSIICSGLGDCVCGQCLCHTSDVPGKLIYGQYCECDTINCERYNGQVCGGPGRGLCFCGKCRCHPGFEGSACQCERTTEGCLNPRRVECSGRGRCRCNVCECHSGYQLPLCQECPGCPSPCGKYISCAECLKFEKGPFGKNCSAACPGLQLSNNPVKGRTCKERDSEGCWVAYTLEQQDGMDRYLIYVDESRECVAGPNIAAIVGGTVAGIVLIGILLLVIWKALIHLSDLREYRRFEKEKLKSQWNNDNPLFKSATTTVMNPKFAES

CS(=O)(=O)c1cccc(C[C@H](NC(=O)c2c(Cl)cc3c(c2Cl)CCN(C(=O)c2ccc4ccoc4c2)C3)C(=O)O)c1 [Compound of Formula I]
IC50 (LFA-1): 2 nM
induction of structural chromosomal aberrations [1]: negative
bone marrow micronucleus result [2]: no effect; also recorded: negative
dose response curve and IC50, Jurkat cell attachment [3]: comparable to that of the known direct competitive LFA-1 antagonist
radioactivity concentration, eye [4, 9]: 18100 ng equivalents [^14C]-compound of Formula I/g
radioactivity concentration, kidney [4, 9]: 151 ng equivalents [^14C]-compound of Formula I/g
radioactivity concentration, liver [4, 9]: 272 ng equivalents compound of Formula I/g
radioactivity concentration, uveal tract [4, 9]: 9330 ng equivalents [^14C]-compound of Formula I/g
radioactivity concentration, esophageal contents ([4]; 0.5 hour, topical ocular 1 mg/eye, male Sprague Dawley, above upper limit of quantification): 399000 ng equivalents [^14C]-compound of Formula I/g
radioactivity concentration, nasal turbinates [4, 10]: 352000 ng equivalents [^14C]-compound of Formula I/g
radioactivity concentration, small intestinal contents [4, 10]: 349000 ng equivalents [^14C]-compound of Formula I/g
radioactivity concentration, cecum contents [4, 11]: 57600 ng equivalents [^14C]-compound of Formula I/g
radioactivity concentration, large intestinal contents [4, 11]: 133000 ng equivalents [^14C]-compound of Formula I/g
radioactivity concentration, uveal tract ([4]; 12 hours postdose, topical ocular 1 mg/eye): 610 ng equivalents [^14C]-compound of Formula I/g
radioactivity concentration, cecum contents [4, 12]: 5870 ng equivalents [^14C]-compound of Formula I/g
radioactivity concentration, large intestinal contents [4, 12]: 18000 ng equivalents [^14C]-compound of Formula I/g
fecal excretion of administered radioactivity ([4]; IV administration 10 mg/kg): ~95%
decline of radioactivity concentration, esophageal contents ([4]; at 2 hours postdose): ~100 fold
decline of radioactivity concentration, esophagus ([4]; at 2 hours postdose): approximately 50 fold
levels in conjunctiva/cornea ([4]; for 16 hrs, rat): > 100 nM
fecal excretion of administered radioactivity ([4]; ocular administration 1 mg/eye): approximately 60%
Concentration, Aqueous humor ([4]; 0.5 hour after administration): 1770 ng Equivalents [^14C]-compound of Formula I/g tissue
Concentration, Conjunctiva (bulbar) ([4]; 0.5 hour after administration): 31500 ng Equivalents [^14C]-compound of Formula I/g tissue
Concentration, Conjunctiva (palpebral) ([4]; 0.5 hour after administration): 26300 ng Equivalents [^14C]-compound of Formula I/g tissue
Concentration, Cornea ([4]; 0.5 hour after administration): 17150 ng Equivalents [^14C]-compound of Formula I/g tissue
Concentration, Iris-ciliary body ([4]; 0.5 hour after administration): 17550 ng Equivalents [^14C]-compound of Formula I/g tissue
Concentration, Lens ([4]; 0.5 hour after administration): 38.8 ng Equivalents [^14C]-compound of Formula I/g tissue
Concentration, Optic Nerve ([4]; 0.5 hour after administration): 796 ng Equivalents [^14C]-compound of Formula I/g tissue
Concentration, Retina and Choroid (with RPE) ([4]; 0.5 hour after administration): 510 ng Equivalents [^14C]-compound of Formula I/g tissue
Concentration, Sclera ([4]; 0.5 hour after administration): 2750 ng Equivalents [^14C]-compound of Formula I/g tissue
Concentration, Vitreous Humor ([4]; 0.5 hour after administration): 1330 ng Equivalents [^14C]-compound of Formula I/g tissue
Concentration, Aqueous humor ([4]; 4.0 hours after administration): 116 ng Equivalents [^14C]-compound of Formula I/g tissue
Concentration, Conjunctiva (bulbar) ([4]; 4.0 hours after administration): 4480 ng Equivalents [^14C]-compound of Formula I/g tissue
Concentration, Conjunctiva (palpebral) ([4]; 4.0 hours after administration): 21830 ng Equivalents [^14C]-compound of Formula I/g tissue
Concentration, Cornea ([4]; 4.0 hours after administration): 1346 ng Equivalents [^14C]-compound of Formula I/g tissue
Concentration, Iris-ciliary body ([4]; 4.0 hours after administration): 500 ng Equivalents [^14C]-compound of Formula I/g tissue
Concentration, Lens ([4]; 4.0 hours after administration): 9.69 ng Equivalents [^14C]-compound of Formula I/g tissue
Concentration, Optic Nerve ([4]; 4.0 hours after administration): 0 ng Equivalents [^14C]-compound of Formula I/g tissue
Concentration, Retina and Choroid (with RPE) ([4]; 4.0 hours after administration): 46.7 ng Equivalents [^14C]-compound of Formula I/g tissue
Concentration, Sclera ([4]; 4.0 hours after administration): 387 ng Equivalents [^14C]-compound of Formula I/g tissue
Concentration, Vitreous Humor ([4]; 4.0 hours after administration): 183 ng Equivalents [^14C]-compound of Formula I/g tissue
Urinary excretion of administered radioactivity ([4]; ocular or IV): up to 2%
melanin binding ([4]; tissue distribution in pigmented vs albino rats): did not preferentially bind to melanin
metabolites in pooled plasma, urine and fecal homogenates ([4]; up to 168 hrs after topical ocular or IV dose): no metabolites were isolated
levels in conjunctiva/cornea ([5]; for 16 hrs, dog): greater than 1 micromolar
metabolites in pooled plasma, urine and fecal homogenate ([5]; up to 168 hrs post-dose): no metabolites detected
solubility ([6]; ethanol/glycol/transcutol solution): 10 % (w/w)
solubility ([6]; water/glycol/transcutol solution): 2 % (w/w)
NOAEL [7]: 1.05 mg/eye/3× per day
Schirmer Tear Test (OS) [8]: 9 mm
Schirmer Tear Test (OS) ([8]; 672 h): 17 mm
Schirmer Tear Test (OD), Mean ([8]; Week 1 (initial visit), Dog #1 not included): 5.5 mm
Schirmer Tear Test (OS), Mean ([8]; Week 1 (initial visit)): 4.2 mm
Schirmer Tear Test (OD) [8, 13]: 8 mm (2×) and 6 mm (2×) and 15 mm and 0 mm and 5 mm
Schirmer Tear Test (OS) [8, 13]: 18 mm and 0 mm (3×) and 9 mm and 7 mm
Schirmer Tear Test (OD), Mean ([8]; Week 2, Dog #1 not included): 7.8 mm
Schirmer Tear Test (OS), Mean ([8]; Week 2): 4.8 mm
Schirmer Tear Test (OS) ([8]; Week 2, individual dogs, 1% solution TID): 4 mm
Schirmer Tear Test (OD) [8, 14]: 10 mm and 2 mm (2×) and 18 mm and 11 mm (3×)
Schirmer Tear Test (OS) [8, 14]: 0 mm (2×) and 14 mm and 3 mm and 8 mm
Schirmer Tear Test (OD), Mean ([8]; Week 4, Dog #1 not included): 7.0 mm
Schirmer Tear Test (OS), Mean ([8]; Week 4): 6.7 mm
Schirmer Tear Test (OS) ([8]; Week 4, individual dogs, 1% solution TID): 14 mm
Schirmer Tear Test (OD) [8, 15]: 15 mm and 2 mm and 12 mm and 0 mm and 5 mm and 10 mm (2×)
Schirmer Tear Test (OS) [8, 15]: 0 mm (2×) and 7 mm and 5 mm and 14 mm
Schirmer Tear Test (OD), Mean ([8]; Week 8, Dog #1 not included): 8.5 mm
Schirmer Tear Test (OS), Mean ([8]; Week 8): 6.5 mm
Schirmer Tear Test (OS) ([8]; Week 8, individual dogs, 1% solution TID): 8 mm
Schirmer Tear Test (OD) [8, 16]: 17 mm and 1 mm and 16 mm and 8 mm and 7 mm (2×) and 11 mm
Schirmer Tear Test (OS) [8, 16]: 19 mm and 0 mm and 2 mm and 17 mm and 6 mm and 8 mm
Schirmer Tear Test (OD), Mean ([8]; Week 12, Dog #1 not included): 8.8 mm
Schirmer Tear Test (OS), Mean ([8]; Week 12): 8.7 mm
Schirmer Tear Test (OS) ([8]; Week 12, individual dogs, 1% solution TID): 8 mm
Schirmer Tear Test (OD) [8, 17]: 16 mm and 0 mm and 13 mm (2×) and 8 mm and 7 mm and 9 mm
Schirmer Tear Test (OS) [8, 17]: 18 mm and 3 mm and 7 mm and 15 mm and 4 mm and 8 mm
Schirmer Tear Test (OD), Mean ([8]; Week 16, after one month of CsA, Dog #1 and anomalous Dog #5 value not included): 11.7 mm
Schirmer Tear Test (OS), Mean ([8]; Week 16, after one month of CsA): 11.0 mm
Schirmer Tear Test (OD) [8, 18]: 18 mm and 12 mm (2×) and 8 mm (3×) and 22** mm
Schirmer Tear Test (OS) [8, 18]: 18 mm and 3 mm and 5 mm and 16 mm and 7 mm and 19 mm
Maximum-Minimum analysis, Total OD ([8]; Weeks 1-12): Total = 28
Maximum-Minimum analysis, Total OS ([8]; Weeks 1-12): Total = 44
Maximum-Minimum analysis, maximal change in STT, OD [8, 19]: 3 and 8 (3×) and −4 and 5
Maximum-Minimum analysis, maximal change in STT, OS [8, 19]: 7 (2×) and 11 and 3 and 10 and 6
average STT improvement, all 12 eyes [8, 20]: 4 mm
average improvement in OD (right eye) STT [8, 20]: 3.3 mm
average improvement in OS (left eye) STT [8, 20]: 4.5 mm
Histopathological evaluation of conjunctival biopsies before and after treatment ([8]; pretreatment vs Week 12): attenuation of lymphocyte accumulation
Schirmer test scores over pretreatment ([8]; week 12): Significant improvement
